From patent publication US20230045902A1, “COMPOSITION FOR REINFORCING FUNCTION OF STEM CELL” (SCM LIFE SCIENCE CO., LTD., priority 2020, published 2023)

How the values were obtained:
Format in all cases: cell-based
IFN-γ = IFN-γ secretion in PHA-activated T-cells co-cultured with treated mesenchymal stem cells (IFN-γ kit); details: MSC treated 24 hours (Table 1 concentrations), co-cultured 3 days with PHA-activated T-cells; FIG. 3
Text: As a control group, mesenchymal stem cells that were not treated with the test substance were used.

[1] = system: Inducible costimulatory ligand (ICOSL); experiment: ICOSL expression change in mesenchymal stem cells by qRT-PCR; details: MSC treated 24 hours, Table 1 concentrations; FIG. 4
Method: Inducible costimulatory ligand (ICOSL) is known to inhibit activated T cells by inducing regulatory T cells. Since the function-enhancing effect of the mesenchymal stem cells according to the treatment with the experimental group was confirmed in Example 1.1, an experiment was performed to additionally confirm whether the treatment with the experimental group induces inflammation and immune regulation ability of the mesenchymal stem cells. After culturing stem cells as in Experimental Example 1, total RNA was isolated using TRIzol (Invitrogen), and then cDNA was synthesized from total RNA using PrimeScript™ reagent Kit with gDNA Eraser (TaKaRa) and qRT-PCR was performed. Through this, the expression change of ICOSL, which is a representative factor of inflammation and immune regulation, was confirmed, and the results are shown in FIG. 4.

Galectin 1 = Galectin 1 expression change in mesenchymal stem cells by qRT-PCR; details: MSC treated 24 hours, Table 1 concentrations; FIG. 5
Text: 1.3. Confirmation of Change in Galectin 1 Expression According to the Treatment with the Experimental Group Galectin 1 is known as a stem cell potency marker closely related to the high efficacy of stem cells, and it is known that the more the expression increases, the stronger the stem cell function and efficacy. Therefore, in order to further confirm whether the treatment with the experimental group induces the inflammation and immune regulation ability of the mesenchymal stem cells, an experiment was performed to confirm the expression of Galectin 1. After culturing stem cells as in Experimental Example 1, total RNA was isolated using TRIzol (Invitrogen), and then cDNA was synthesized from total RNA using PrimeScript™ reagent Kit with gDNA Eraser (TaKaRa) and qRT-PCR was performed. Using this, a change in the expression of Galectin 1, an indicator of stem cell efficacy, was confirmed, and the result is shown in FIG. 5.

[2] = system: indoleamine 2,3-dioxygenase (IDO); experiment: IDO expression change in mesenchymal stem cells by qRT-PCR; details: MSC treated 24 hours, Table 1 concentrations; FIG. 6
Method: At 37° C. and 5% CO2 incubator, mesenchymal stem cells in storage state (stored in LN2 tank) were thawed and cultured. At this time, they were cultured in a medium (DMEM, alpha-MEM) containing 10% FBS or 4% hPL. Cells were cultured until confluence reached about 80%. After seeding the cultured mesenchymal stem cells in a 100 mm dish, a candidate material for enhancing the mesenchymal stem cell function was selected.
The selected 20 ng/ml of IL-1β and vitamin B6 and IFN-α at different concentrations were combined, and the effect was confirmed by the change in indoleamine 2,3-dioxygenase (IDO) expression. IDO is known as an immunomodulatory factor that suppresses the proliferation of immune cells such as T cells by changing tryptophan, which is essential for T cell proliferation, into kynurenine. After culturing stem cells, total RNA was isolated using TRIzol (Invitrogen), and cDNA was synthesized from total RNA using PrimeScript™ reagent Kit with gDNA Eraser (TaKaRa), followed by qRT-PCR.
The selected candidate substances and their concentration combinations are shown in Table 1, and they were treated to mesenchymal stem cells for 24 hours, and the function-enhancing effect was confirmed. […]

TSG6 and IDO = experiment: Concentration setting of IL-1β in MSC by expression of TSG6 and IDO; details: treated in MSC
Method: IL-1β, IFN-α and vitamin B6 were selected as candidate substances, and concentrations for function-enhancing were set. When IL-1β was treated in MSC, it was confirmed that the lowest effective concentration capable of increasing the expression of TSG6 and IDO was 20 ng/ml, and this was set as the standard.

Molecule | change in IFN-γ secretion compared to the untreated control group (IFN-γ) | expression of ICOSL [1] | expression of Galectin 1 (Galectin 1) | IDO expression change [2] | lowest effective concentration capable of increasing the expression of TSG6 and IDO (TSG6 and IDO)
interferon alpha (IFN-α) | not significant | did not show a distinct increase |  |  | 
Interleukin 1 beta (IL-1β) | not significant | increased | increased | did not show a distinct expression change | 20 ng/mL
Cc1ncc(CO)c(CO)c1O.Cl [vitamin B6] | not significant | did not show a distinct increase | did not show a distinct increase | did not show a distinct expression change | 
